The text below walks through data of patent publication US12139492B2 (Endotarget Inc., priority 2021, dated 2024).

One may read the DC50 as the midpoint of the concentration-degradation curve. As usually defined, the Dmax is the largest share of the target that was removed.

Test [1] relates to JeKo-1 cells. The test can be described thus: Antiproliferative effect, MTS cell viability assay, JeKo-1 cells. Conditions: Homo sapiens; JeKo-1 mantle cell lymphoma cells; read-out: IC50 (anti-proliferation) JeKO-1 cells. Format: cell-based. Summed up: (§1)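 Cells were exposed to compound at 0, 0.001, 0.01, 0.1, 1 and 10 μM for 72 h. Viability was then measured by MTS assay, reading formazan produced by metabolically active cells as absorbance at 490 nm.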
Background: Tetrazolium assays rely on reduction of a dye to a coloured formazan, in cell work by metabolically active cells.

The subject of test [2] is Mino cells. In words: Antiproliferative effect, MTS cell viability assay, Mino cells. Conditions: Homo sapiens, MINO, Mino mantle cell lymphoma cells; read-out: IC50 (anti-proliferation) Mino cells. Format: cell-based. Summed up: as §1
The target of test [3] is BTK (Homo sapiens, UniProt Q06187). The test can be described thus: Degradation of BTK protein in Namalwa cells (Western blot; DC50, Dmax). As to conditions: for degradation of BTK protein: Namalwa B lymphocyte cells, various concentrations, 24 hours, Western blot; for DC50: read-out: DC50 (BTK degradation), concentration giving 50% reduction of BTK expression level, cell line not given; for Dmax: read-out: Dmax (BTK degradation). On the technique in general: A western blot detects proteins with antibodies after separation by electrophoresis.
Chain of BTK (Q06187 whole entry): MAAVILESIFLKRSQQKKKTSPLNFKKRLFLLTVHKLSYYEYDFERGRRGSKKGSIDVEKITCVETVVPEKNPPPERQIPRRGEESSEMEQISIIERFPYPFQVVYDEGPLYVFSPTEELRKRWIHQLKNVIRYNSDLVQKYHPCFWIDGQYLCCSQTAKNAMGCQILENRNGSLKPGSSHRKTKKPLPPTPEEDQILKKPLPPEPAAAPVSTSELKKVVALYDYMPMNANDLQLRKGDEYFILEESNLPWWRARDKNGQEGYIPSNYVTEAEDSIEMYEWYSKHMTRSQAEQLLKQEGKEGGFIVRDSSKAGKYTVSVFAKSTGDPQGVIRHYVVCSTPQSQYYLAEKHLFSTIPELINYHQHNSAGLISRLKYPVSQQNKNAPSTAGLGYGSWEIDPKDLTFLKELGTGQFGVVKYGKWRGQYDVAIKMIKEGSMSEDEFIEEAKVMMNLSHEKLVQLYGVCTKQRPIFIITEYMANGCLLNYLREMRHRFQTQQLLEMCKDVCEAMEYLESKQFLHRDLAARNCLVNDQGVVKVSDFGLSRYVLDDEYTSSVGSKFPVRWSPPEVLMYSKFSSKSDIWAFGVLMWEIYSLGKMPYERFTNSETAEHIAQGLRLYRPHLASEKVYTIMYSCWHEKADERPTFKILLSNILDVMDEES

Take `Nc1ncnc2c1c(-c1ccc(Oc3ccccc3)cc1)nn2[C@@H]1CCCN(C2CCN(C(=O)N3CC(N4CCN(c5ccc6c(c5)CN(C5CCC(=O)NC5=O)C6=O)CC4)C3)CC2)C1` (stereo partly drawn) [Compound 476, 3-(5-(4-(1-((R)-3-(4-amino-3-(4-phenoxyphenyl)-1H-pyrazolo[3,4-d]pyrimidin-1-yl)-[1,4′-bipiperidine]-1′-carbonyl)azetidin-3-yl)piperazin-1-yl)-1-oxoisoindolin-2-yl)piperidine-2,6-dione]: the IC50 in test [1] is less than 1 µM. For the same molecule, the IC50 in test [2] was less than 1 µM. Also, in test [3], the “degradation of BTK protein” value is on record as “dose-dependent degradation”, the half-maximal degradation concentration (DC50) was less than 0.01 µM and the greatest degradation seen (Dmax) was more than 90%.
As to `Nc1ncnc2c1c(-c1ccc(Oc3ccccc3)cc1)nn2[C@@H]1CCCN(C2CN(C(=O)N3CC(N4CCN(c5ccc6c(c5)C(=O)N(C5CCC(=O)NC5=O)C6=O)CC4)C3)C2)C1` (stereo partly drawn) [Compound 479, 5-(4-(1-(3-((R)-3-(4-amino-3-(4-phenoxyphenyl)-1H-pyrazolo[3,4-d]pyrimidin-1-yl)piperidin-1-yl)azetidin-1-carbonyl)azetidin-3-yl)piperazin-1-yl)-2-(2,6-dioxopiperidin-3-yl)isoindoline-1,3-dione], the IC50 in test [1] lay within 1 to 10 µM. Further, in test [2], the IC50 lay in the range of 1 to 10 µM. Besides, in test [3], the DC50 was less than 0.01 µM and the maximal degradation (Dmax) was more than 90%.
With `Nc1ncnc2c1c(-c1ccc(Oc3ccccc3)cc1)nn2[C@@H]1CCCN(C2CN(C(=O)N3CC(N4CCN(c5ccc6c(c5)CN(C5CCC(=O)NC5=O)C6=O)CC4)C3)C2)C1` (stereo partly drawn) [Compound 480, 3-(5-(4-(1-(3-((R)-3-(4-amino-3-(4-phenoxyphenyl)-1H-pyrazolo[3,4-d]pyrimidin-1-yl)piperidin-1-yl)azetidine-1-carbonyl)azetidin-3-yl)piperazin-1-yl)-1-oxoisoindolin-2-yl)piperidine-2,6-dione], the IC50 in test [1] fell in the range of 1 to 10 µM. Moreover, in test [2], the IC50 was less than 1 µM. Moreover, in test [3], the “degradation of BTK protein” value is listed as “dose-dependent degradation”, the 50% degradation concentration (DC50) is less than 0.01 µM and the Dmax was more than 90%.
`Nc1ncnc2c1c(-c1ccc(Oc3ccccc3)cc1)nn2[C@@H]1CCCN(C2CN(C(=O)N3CCC(N4CCN(c5ccc6c(c5)C(=O)N(C5CCC(=O)NC5=O)C6=O)CC4)CC3)C2)C1` (stereo partly drawn) [Compound 481, 5-(4-(1-(3-((R)-3-(4-amino-3-(4-phenoxyphenyl)-1H-pyrazolo[3,4-d]pyrimidin-1-yl)piperidin-1-yl)azetidin-1-carbonyl)piperidin-4-yl)piperazin-1-yl)-2-(2,6-dioxopiperidin-3-yl)isoindoline-1,3-dione]: the IC50 in test [1] and in test [2] was 1 to 10 µM throughout. Besides, the DC50 in test [3] was less than 0.01 µM. In addition, in test [3], the maximal degradation (Dmax) is more than 90%.
`Nc1ncnc2c1c(-c1ccc(Oc3ccccc3)cc1)nn2[C@@H]1CCCN(C2CN(C(=O)N3CCC(N4CCN(c5ccc6c(c5)CN(C5CCC(=O)NC5=O)C6=O)CC4)CC3)C2)C1` (stereo partly drawn) [Compound 482, 3-(5-(4-(1-(3-((R)-3-(4-amino-3-(4-phenoxyphenyl)-1H-pyrazolo[3,4-d]pyrimidin-1-yl)piperidin-1-yl)azetidine-1-carbonyl)piperidin-4-yl)piperazin-1-yl)-1-oxoisoindolin-2-yl)piperidine-2,6-dione]: the IC50 in test [1] is 1 to 10 µM. Also, the IC50 in test [2] is less than 1 µM. Also, in test [3], the DC50 is less than 0.01 µM and the Dmax was more than 90%.
As to `Nc1ncnc2c1c(-c1ccc(Oc3ccccc3)cc1)nn2C1CCN(C(=O)N2CC(N3CCN(c4ccc5c(c4)C(=O)N([C@H]4CCC(=O)NC4=O)C5=O)CC3)C2)CC1` [Compound 483, (S)-5-(4-(1-(4-(4-amino-3-(4-phenoxyphenyl)-1H-pyrazolo[3,4-b]pyrimidin-1-yl)piperidine-1-carbonyl)azetidin-3-yl)piperazin-1-yl)-2-(2,6-dioxopiperidin-3-yl)isoindoline-1,3-dione], the IC50 in test [1] was in the range of 1 to 10 µM. Also, the IC50 in test [2] was less than 1 µM. In test [3], the DC50 is less than 0.01 µM and the greatest degradation seen (Dmax) is more than 90%.
For `Nc1ncnc2c1c(-c1ccc(Oc3ccccc3)cc1)nn2C1CCN(C(=O)N2CC(N3CCN(c4ccc5c(c4)C(=O)N([C@@H]4CCC(=O)NC4=O)C5=O)CC3)C2)CC1` [Compound 485, (R)-5-(4-(1-(4-(4-amino-3-(4-phenoxyphenyl)-1H-pyrazolo[3,4-d]pyrimidin-1-yl)piperidine-1-carbonyl)azetidin-3-yl)piperazin-1-yl)-2-(2,6-dioxopiperidin-3-yl)isoindoline-1,3-dione], the IC50 in test [1] is less than 1 µM. Further, the IC50 in test [2] was less than 1 µM. In test [3], the DC50 was less than 0.01 µM and the greatest degradation seen (Dmax) is more than 90%.
For `Nc1ncnc2c1c(-c1ccc(Oc3ccccc3)cc1)nn2C1CCN(C(=O)N2CC(N3CCN(c4ccc5c(c4)CN([C@@H]4CCC(=O)NC4=O)C5=O)CC3)C2)CC1` [Compound 486, (R)-3-(5-(4-(1-(4-(4-amino-3-(4-phenoxyphenyl)-1H-pyrazolo[3,4-d]pyrimidin-1-yl)piperidine-1-carbonyl)azetidin-3-yl)piperazin-1-yl)-1-oxoisoindolin-2-yl)piperidine-2,6-dione], the IC50 in test [1] and in test [2] was less than 1 µM in each case. The 50% degradation concentration (DC50) in test [3] was less than 0.01 µM. Also, the greatest degradation seen (Dmax) in test [3] is more than 90%.
For the molecule `Nc1ncnc2c1c(-c1ccc(Oc3ccccc3)cc1)nn2[C@@H]1CCCN(C(=O)N2CC(N3CCN(c4ccc5c(c4)C(=O)N(C4CCC(=O)NC4=O)C5=O)CC3)C2)C1` (stereo partly drawn) [Compound 487, 5-(4-(1-((R)-3-(4-amino-3-(4-phenoxyphenyl)-1H-pyrazolo[3,4-d]pyrimidin-1-yl)piperidine-1-carbonyl)azetidin-3-yl)piperazin-1-yl)-2-(2,6-dioxopiperidin-3-yl)isoindoline-1,3-dione], the IC50 in test [1] was less than 1 µM. Moreover, the IC50 in test [2] was less than 1 µM. Besides, in test [3], the half-maximal degradation concentration (DC50) was less than 0.01 µM and the Dmax was more than 90%.
Consider `Nc1ncnc2c1c(-c1ccc(Oc3ccccc3)cc1)nn2[C@@H]1CCCN(C(=O)N2CC(N3CCN(c4ccc5c(c4)CN(C4CCC(=O)NC4=O)C5=O)CC3)C2)C1` (stereo partly drawn) [Compound 488, 3-(5-(4-(1-((R)-3-(4-amino-3-(4-phenoxyphenyl)-1H-pyrazolo[3,4-d]pyrimidin-1-yl)piperidine-1-carbonyl)azetidin-3-yl)piperazin-1-yl)-1-oxoisoindolin-2-yl)piperidine-2,6-dione], for which the IC50 in test [1] is less than 1 µM. Besides, in test [2], the IC50 was less than 1 µM. Besides, in test [3], the DC50 was less than 0.01 µM and the Dmax was more than 90%.
For `Nc1ncnc2c1c(-c1ccc(Oc3ccccc3)cc1)nn2[C@@H]1CCCN(C(=O)N2CC(N3CCN(c4ccc5c(c4)C(=O)N([C@H]4CCC(=O)NC4=O)C5=O)CC3)C2)C1` [Compound 489, 5-(4-(1-((R)-3-(4-amino-3-(4-phenoxyphenyl)-1H-pyrazolo[3,4-d]pyrimidin-1-yl)piperidine-1-carbonyl)azetidin-3-yl)piperazin-1-yl)-2-((S)-2,6-dioxopiperidin-3-yl)isoindoline-1,3-dione], the IC50 in test [1] was less than 1 µM. The IC50 in test [2] was less than 1 µM. Further, in test [3], the DC50 was less than 0.01 µM and the maximal degradation (Dmax) is more than 90%.
Regarding `Nc1ncnc2c1c(-c1ccc(Oc3ccccc3)cc1)nn2[C@@H]1CCCN(C(=O)N2CC(N3CCN(c4ccc5c(c4)C(=O)N([C@@H]4CCC(=O)NC4=O)C5=O)CC3)C2)C1` [Compound 491, 5-(4-(1-((R)-3-(4-amino-3-(4-phenoxyphenyl)-1H-pyrazolo[3,4-d]pyrimidin-1-yl)piperidine-1-carbonyl)azetidin-3-yl)piperazin-1-yl)-2-((R)-2,6-dioxopiperidin-3-yl)isoindoline-1,3-dione], in test [1], the IC50 is less than 1 µM. Further, the IC50 in test [2] is less than 1 µM. Also, in test [3], the DC50 lay in the range of 0.01 to 0.05 µM and the Dmax is more than 90%.
Take `Nc1ncnc2c1c(-c1ccc(Oc3ccccc3)cc1)nn2[C@@H]1CCCN(C(=O)N2CC(N3CCN(c4ccc5c(c4)CN([C@@H]4CCC(=O)NC4=O)C5=O)CC3)C2)C1` [Compound 492, (R)-3-(5-(4-(1-((R)-3-(4-amino-3-(4-phenoxyphenyl)-1H-pyrazolo[3,4-d]pyrimidin-1-yl)piperidine-1-carbonyl)azetidin-3-yl)piperazin-1-yl)-1-oxoisoindolin-2-yl)piperidine-2,6-dione]: in test [1], the IC50 was less than 1 µM. Also, the IC50 in test [2] was less than 1 µM. Further, in test [3], the DC50 was less than 0.01 µM and the maximal degradation (Dmax) was more than 90%.
On to `NC1=NC=NC2C1C(c1ccc(Oc3ccccc3)cc1)=NN2C1CCN(C(=O)N2CC(C3CN(c4ccc5c(c4)C(=O)N(C4CCC(=O)NC4=O)C5=O)C3)C2)CC1` (centres unmarked) [Compound 493, 5-(1′-(4-(4-amino-3-(4-phenoxyphenyl)-3a,7a-dihydro-1H-pyrazolo[3,4-d]pyrimidin-1-yl)piperidine-1-carbonyl)-[3,3′-biazetidin]-1-yl)-2-(2,6-dioxopiperidin-3-yl)isoindoline-1,3-dione], for which, in test [1], the IC50 is less than 1 µM. Moreover, the IC50 in test [2] is less than 1 µM. In test [3], the half-maximal degradation concentration (DC50) lay in the range of 0.01 to 0.05 µM and the Dmax is more than 90%.
For `NC1=NC=NC2C1C(c1ccc(Oc3ccccc3)cc1)=NN2C1CCN(C(=O)N2CC(C3CN(c4ccc5c(c4)CN(C4CCC(=O)NC4=O)C5=O)C3)C2)CC1` (centres unmarked) [Compound 494, 3-(5-(1′-(4-(4-amino-3-(4-phenoxyphenyl)-3a,7a-dihydro-1H-pyrazolo[3,4-d]pyrimidin-1-yl)piperidine-1-carbonyl)-[3,3′-biazetidin]-1-yl)-1-oxoisoindolin-2-yl)piperidine-2,6-dione], the IC50 in test [1] and in test [2] was less than 1 µM each time. The half-maximal degradation concentration (DC50) in test [3] is less than 0.01 µM. Moreover, the greatest degradation seen (Dmax) in test [3] was more than 90%.
